Measured values from patent publication US8691757B2 (Bristol-Myers Squibb Company, priority 2011, dated 2014).
pEC50: −log10 of the molar value.

Assays:
[1] = test system: HCV genotype 1a (H77 strain) replicon in HUH-7 cells; experiment: HCV replicon luciferase reporter assay, genotype 1a; assay type: cell-based; conditions: Hepatitis C virus, 72 h, HCV genotype 1a replicon, 3 days incubation, Renilla luciferase
Source text: (§1) An HCV replicon whole cell system was established as described by Lohmann V, Korner F, Koch J, Herian U, Theilmann L, Bartenschlager R., Science 285(5424):110-3 (1999) and modified to introduce a luciferase reporter, as first described by Krieger et al (Krieger N, Lohmann V, and Bartenschlager R, J. Virol. 75(10):4614-4624 (2001)). CDNA encoding a humanized form of the Renilla luciferase gene and a linker sequence fused directly to the 3′-end of the luciferase gene were introduced into the replicon construct using an Asc1 restriction site located in core, directly upstream of the neomycin marker gene. The adaptive mutation at position 1179 (serine to isoleucine) was also introduced (Blight K J, Kolykhalov, A A, Rice, C M, Science 290(5498):1972-1974). A stable cell line constitutively expressing this HCV replicon construct was generated by first linearizing plasmid DNAs with ScaI. RNA transcripts were synthesized in vitro using the T7 MegaScript transcription kit (Ambion, Austin, Tex.) according to manufacturer's directions. In vitro transcripts of the cDNA were transfected into the human hepatoma cell line, HUH-7. […] Resulting cell lines were characterized for positive and negative strand RNA production and protein production over time.
A stable HCV replicon luciferase reporter cell line representing the genotype 1a H77 strain (Yanagi M, Purcell R H, Emerson S U, et al. Transcripts from a single full-length cDNA clone of hepatitis C virus are infectious when directly transfected into the liver of a chimpanzee. Proc Natl Acad Sci USA 1997; 94(16):8738-8743) was generated as described previously for the genotype 1b (Con1) replicon luciferase cell line. The replicon construct was modified by introducing mutations were introduced into the genes encoding the NS3 helicase domain (proline replaced by leucine at position 1496) and NS5A (serine to isoleucine at position 2204) to improve replication in cell culture.
(§2) HCV replicon luciferase assays were developed to monitor the inhibitory effects of compounds described in the disclosure on HCV genotypes 1a and 1b viral replication. HUH-7 cells, constitutively expressing the HCV replicon, were grown in Dulbecco's Modified Eagle Media (DMEM) (Gibco-BRL) containing 10% Fetal calf serum (FCS) (Sigma) and 1 mg/mL G418 (Gibco-BRL). Compounds were serially diluted 3 folds in DMSO for a twenty-point titration and subsequently transferred to sterile 384-well tissue-culture treated plates (Corning cat #3571). The plates were then seeded with 50 μL of cells at a density of 3.0×10^3 cells/well in DMEM containing 4% FCS (final DMSO concentration at 0.5%). After 3 days incubation at 37° C., cells were analyzed for Renilla Luciferase activity using the EnduRen as substrate (Promega cat #E6485). The EnduRen substrate was diluted in DMEM and then added to the plates to a final concentration of 7.5 μM. The plates were incubated for 2 hrs at 37° C. and then read immediately for 30 seconds with Viewlux Imager (PerkinElmer) using a luminescence program. To assess cytotoxicity of compounds, CC50 values were generated by multiplexing the EnduRen-containing plates with Cell Titer-Blue (Promega, cat #G8082). Cell-Titer Blue (3 μL) was added to each well and incubated for 8 hrs at 37° C. The fluorescence signal from each well was read, with an excitation wavelength at 525/10 nm and an emission wavelength of 598/10 nm, using the Viewlux Imager.
(§3) The EC50 values for compounds were calculated by using a four-parameter logistic equation: y=A+((B−A)/(1+((C/x)^D))), where A and B denotes minimal and maximal % inhibition, respectively, C is the EC50, D is the hill slope and x represents compound concentration.

[2] = test system: HCV genotype 1b (Con1) replicon in HUH-7 cells; experiment: HCV replicon luciferase reporter assay, genotype 1b; assay type: cell-based; conditions: Hepatitis C virus, 72 h, HCV genotype 1b replicon, 3 days incubation, Renilla luciferase
Source text: as §1, with “time. […]” for “time.”
as §2, §3

SMILES | pEC50 ([1]; numeric values) | pEC50 ([2]; numeric values) | pEC50 ([1]; range classes) | pEC50 ([2]; range classes)
COc1ccc2nc(O[C@@H]3C[C@H]4C(=O)N[C@]5(C(=O)NS(=O)(=O)C6CC6)C[C@H]5/C=C\[C@H](C)CCC[C@@H](C)[C@H](NC(=O)OC(C)(C)C)C(=O)N4C3)cnc2c1 [Compound 26, tert-butyl (2R,6S,7R,11R,13aS,14aR,16aS,Z)-14a-(cyclopropylsulfonylcarbamoyl)-2-(6-methoxyquinoxalin-2-yloxy)-7,11-dimethyl-5,16-dioxo-1,2,3,5,6,7,8,9,10,11,13a,14,14a,15,16,16a-hexadecahydrocyclopropa[e]pyrrolo[1,2-a][1,4]diazacyclopentadecin-6-ylcarbamate] | 6.67 | 7.06 |  | 
COc1ccc2nc(O[C@@H]3C[C@H]4C(=O)N[C@]5(C(=O)NS(=O)(=O)C6CC6)C[C@H]5/C=C\[C@@H](C)CCC[C@@H](C)[C@H](NC(=O)OC(C)(C)C)C(=O)N4C3)cnc2c1 [Compound 27, tert-butyl (2R,6S,7R,11S,13aS,14aR,16aS,Z)-14a-(cyclopropylsulfonylcarbamoyl)-2-(6-methoxyquinoxalin-2-yloxy)-7,11-dimethyl-5,16-dioxo-1,2,3,5,6,7,8,9,10,11,13a,14,14a,15,16,16a-hexadecahydrocyclopropa[e]pyrrolo[1,2-a][1,4]diazacyclopentadecin-6-ylcarbamate] |  |  | 7.17 to 8.30 | 7.17 to 8.30
COc1ccc2ncc(O[C@@H]3C[C@H]4C(=O)N[C@]5(C(=O)NS(=O)(=O)C6CC6)C[C@H]5/C=C\[C@H](C)CCC[C@@H](C)[C@H](NC(=O)OC(C)(C)C)C(=O)N4C3)nc2c1 [Compound 28, tert-butyl (2R,6S,7R,11R,13aS,14aR,16aS,Z)-14a-(cyclopropylsulfonylcarbamoyl)-2-(7-methoxyquinoxalin-2-yloxy)-7,11-dimethyl-5,16-dioxo-1,2,3,5,6,7,8,9,10,11,13a,14,14a,15,16,16a-hexadecahydrocyclopropa[e]pyrrolo[1,2-a][1,4]diazacyclopentadecin-6-ylcarbamate] |  |  | 7.17 to 8.30 | 8.70 to 9.00
COc1ccc2ncc(O[C@@H]3C[C@H]4C(=O)N[C@]5(C(=O)NS(=O)(=O)C6CC6)C[C@H]5/C=C\[C@@H](C)CCC[C@@H](C)[C@H](NC(=O)OC(C)(C)C)C(=O)N4C3)nc2c1 [Compound 29, tert-butyl (2R,6S,7R,11S,13aS,14aR,16aS,Z)-14a-(cyclopropylsulfonylcarbamoyl)-2-(7-methoxyquinoxalin-2-yloxy)-7,11-dimethyl-5,16-dioxo-1,2,3,5,6,7,8,9,10,11,13a,14,14a,15,16,16a-hexadecahydrocyclopropa[e]pyrrolo[1,2-a][1,4]diazacyclopentadecin-6-ylcarbamate] |  |  | 7.17 to 8.30 | 7.17 to 8.30
COc1ccc2ncc(O[C@@H]3C[C@H]4C(=O)N[C@]5(C(=O)NS(=O)(=O)C6CC6)C[C@H]5/C=C\[C@H](C)CCC[C@@H](C)[C@H](NC(=O)OC(C)(C)C(F)(F)F)C(=O)N4C3)nc2c1 [Compound 30, 1,1,1-trifluoro-2-methylpropan-2-yl (2R,6S,7R,11R,13aS,14aR,16aS,Z)-14a-(cyclopropylsulfonylcarbamoyl)-2-(7-methoxyquinoxalin-2-yloxy)-7,11-dimethyl-5,16-dioxo-1,2,3,5,6,7,8,9,10,11,13a,14,14a,15,16,16a-hexadecahydrocyclopropa[e]pyrrolo[1,2-a][1,4]diazacyclopentadecin-6-ylcarbamate] |  |  | 8.30 to 8.70 | 9.00 to 9.70
COc1ccc2ncc(O[C@@H]3C[C@H]4C(=O)N[C@]5(C(=O)NS(=O)(=O)C6CC6)C[C@H]5/C=C\[C@@H](C)CCC[C@@H](C)[C@H](NC(=O)OC(C)(C)C(F)(F)F)C(=O)N4C3)nc2c1 [Compound 31, 1,1,1-trifluoro-2-methylpropan-2-yl (2R,6S,7R,11S,13aS,14aR,16aS,Z)-14a-(cyclopropylsulfonylcarbamoyl)-2-(7-methoxyquinoxalin-2-yloxy)-7,11-dimethyl-5,16-dioxo-1,2,3,5,6,7,8,9,10,11,13a,14,14a,15,16,16a-hexadecahydrocyclopropa[e]pyrrolo[1,2-a][1,4]diazacyclopentadecin-6-ylcarbamate] |  |  | 7.17 to 8.30 | 7.17 to 8.30
COc1ccc2nc(O[C@@H]3C[C@H]4C(=O)N[C@]5(C(=O)NS(=O)(=O)C6CC6)C[C@H]5/C=C\[C@H](C)CCC[C@@H](C)[C@H](NC(=O)OC(C)(C)C(F)(F)F)C(=O)N4C3)cnc2c1 [Compound 32, 1,1,1-trifluoro-2-methylpropan-2-yl (2R,6S,7R,11R,13aS,14aR,16aS,Z)-14a-(cyclopropylsulfonylcarbamoyl)-2-(6-methoxyquinoxalin-2-yloxy)-7,11-dimethyl-5,16-dioxo-1,2,3,5,6,7,8,9,10,11,13a,14,14a,15,16,16a-hexadecahydrocyclopropa[e]pyrrolo[1,2-a][1,4]diazacyclopentadecin-6-ylcarbamate] |  |  | 7.17 to 8.30 | 7.17 to 8.30
COc1cc2c(OC)cnc(O[C@@H]3C[C@H]4C(=O)N[C@]5(C(=O)NS(=O)(=O)C6CC6)C[C@H]5/C=C\[C@H](C)CCC[C@@H](C)[C@H](NC(=O)OC(C)(C)C(F)(F)F)C(=O)N4C3)c2cc1F [Compound 33, 1,1,1-trifluoro-2-methylpropan-2-yl (2R,6S,7R,11R,13aS,14aR,16aS,Z)-14a-(cyclopropylsulfonylcarbamoyl)-2-(7-fluoro-4,6-dimethoxyisoquinolin-1-yloxy)-7,11-dimethyl-5,16-dioxo-1,2,3,5,6,7,8,9,10,11,13a,14,14a,15,16,16a-hexadecahydrocyclopropa[e]pyrrolo[1,2-a][1,4]diazacyclopentadecin-6-ylcarbamate] |  |  | 8.30 to 8.70 | 8.70 to 9.00
C[C@@H]1CCC[C@@H](C)/C=C\[C@@H]2C[C@@]2(C(=O)NS(=O)(=O)C2CC2)NC(=O)[C@@H]2C[C@@H](Oc3nccc4ccccc34)CN2C(=O)[C@H]1NC(=O)OC(C)(C)C(F)(F)F [Compound 34, 1,1,1-trifluoro-2-methylpropan-2-yl (2R,6S,7R,11R,13aS,14aR,16aS,Z)-14a-(cyclopropylsulfonylcarbamoyl)-2-(isoquinolin-1-yloxy)-7,11-dimethyl-5,16-dioxo-1,2,3,5,6,7,8,9,10,11,13a,14,14a,15,16,16a-hexadecahydrocyclopropa[e]pyrrolo[1,2-a][1,4]diazacyclopentadecin-6-ylcarbamate] |  |  | 8.30 to 8.70 | 9.00 to 9.70
